# Source: US20260085082A1, “KDM1A INHIBITORS FOR THE TREATMENT OF DISEASE” (Imago Biosciences, Inc., priority 2022, published 2026)
# pIC50: −log10 of the molar value. Like-named read-outs stand apart in the source and are kept apart here.
# How the values were obtained:
# [1] = system: MV4;11 cells; assay: Cell Titer-Glo Luminescent Cell Viability Assay, cell growth inhibition against MV4;11 cells; type: cell-based
# Experimental: Cell growth inhibition against MV4;11 cells was confirmed for the synthetic compounds. The Cell Titer-Glo Luminescent Cell Viability Assay (Promega, USA) was used to determine the number of viable cells in culture based on quantitation of the ATP present, which signals the presence of metabolically active cells. This assay was run in a 96-well plate format arrayed in a 10-point dose curve, ranging from 0 to 50 μM with 4-fold dilutions for each compound. Cells are seeded on Day 0 at 3750 cells per well. At Day 5, a portion of each well is assayed for viability according to the Cell Titer-Glo protocol. Briefly, cells/plates were centrifuged at 1100×g for 5 minutes. 100 μL of media was removed from each well and replaced with 100 μL of CellTiter-Glo. The plates were shaken at room temperature for 10 minutes and measured on a luminescence plate reader. Another portion of each well from the Day 5 plate is used to seed a new 96 plate containing fresh compound and media set up in the equivalent 10-point dose curve array in order to continue the cell growth inhibition assay for another 5 days. A final timepoint is collected at Day 10 using the Cell Titer-Glo protocol. Luminescence was detected on an EnVision® Multilabel Plate Reader (Perkin Elmer, Waltham, Mass.) and IC50 determination was made using Graph Pad Prism software.
# [2] = target: LSD1 (Homo sapiens, UniProt O60341); assay: LSD1 10-dose IC50 fluorescence coupling enzyme assay (HRP/Amplex Red, resorufin); type: biochemical; settings: 10 M histone H3(1-21)K4me2 peptide substrate; 3-fold serial dilution in duplicate starting at 100 μM
# Experimental: Compounds were tested in a 10-dose IC50 mode fluorescence coupling enzyme assay with 3-fold serial dilution in duplicate starting at 100 μM. The production of FAD-dependent H2O2 as a result of demethylase activity of LSD1 on […] histone H3(1-21)K4me2 peptide substrate was measured by coupling with HRP and Amplex Red to yield resorufin (fluorescence measured at Ex/Em=535/590 nm on EnVision, Perkin Elmer).
# [3] = Homo sapiens, MV4-11, 120 h, MV4;11 cells, Day 5, 10-point dose curve 0 to 50 μM, read-out: Cell Titer Glo IC50 (5 d)
# [4] = Homo sapiens, MV4-11, MV4;11 cells, Day 10 (re-seeded at Day 5 with fresh compound), 10-point dose curve 0 to 50 μM, read-out: Cell Titer Glo IC50 (10 d)
SMILES,"pIC50 ([1]; MV4;11 cells, Day 5, 10-point dose curve 0 to 50 μM, 2,2,2-trifluoroacetate, read-out: Cell Titer Glo IC50 (5 d))","pIC50 ([1]; MV4;11 cells, Day 10 (re-seeded at Day 5 with fresh compound), 10-point dose curve 0 to 50 μM, read-out: Cell Titer Glo IC50 (10 d))",pIC50 [2],"pIC50 [1, 3]","pIC50 [1, 4]"
"COC1CCN(c2ccc(-n3nc(C(=O)N4CCCC(N)C4)cc3-c3ccc(C#N)c(F)c3)cc2)CC1 (stereo in doubt) [Example 64, (R)-4-(3-(3-aminopiperidine-1-carbonyl)-1-(4-(4-methoxypiperidin-1-yl)phenyl)-1H-pyrazol-5-yl)-2-fluorobenzonitrile 2,2,2-trifluoroacetate]",> 6.30,> 6.30,> 6.30,,
"COc1ccc(-n2nc(C(=O)N3CCCC(N)C3)cc2-c2ccc(C#N)cc2)cc1 (stereo not drawn) [Example 2, 4-(3-(3-Aminopiperidine-1-carbonyl)-1-(4-methoxyphenyl)-1H-pyrazol-5-yl)benzonitrile]",,,> 6.30,6.00 to 6.30,
"COc1ccc(-n2nc(C(=O)NC3CCCNC3)cc2-c2ccc(C#N)cc2)cc1 (stereo not drawn) [Example 3, 5-(4-Cyanophenyl)-1-(4-methoxyphenyl)-N-(piperidin-3-yl)-1H-pyrazole-3-carboxamide 2,2,2-trifluoroacetate]",,,5.00 to 6.00,5.00 to 6.00,
"COc1ccc(-n2nc(-c3ccc(C#N)cc3)cc2C(=O)N2CCCC(N)C2)cc1 (stereo not drawn) [Example 4, 4-(5-(3-Aminopiperidine-1-carbonyl)-1-(4-methoxyphenyl)-1H-pyrazol-3-yl)benzonitrile]",,,> 6.30,5.00 to 6.00,
"COc1ccc(-n2nc(-c3ccc(C#N)cc3)cc2C(=O)NC2CCCNC2)cc1 (stereo not drawn) [Example 5, 3-(4-Cyanophenyl)-1-(4-methoxyphenyl)-N-(piperidin-3-yl)-1H-pyrazole-5-carboxamide 2,2,2-trifluoroacetate]",,,5.00 to 6.00,< 5.00,
"Cc1ccc(-n2nc(C(=O)N3CCCC(N)C3)cc2-c2ccc(C#N)c(F)c2)cc1 (stereo not drawn) [Example 6, 4-(3-(3-Aminopiperidine-1-carbonyl)-1-(p-tolyl)-1H-pyrazol-5-yl)-2-fluorobenzonitrile]",,,> 6.30,> 6.30,
"Cc1ccc(-n2nc(C(=O)N3CCCC(CN)C3)cc2-c2ccc(C#N)c(F)c2)cc1 (stereo not drawn) [Example 7, 4-(3-(3-(Aminomethyl)piperidine-1-carbonyl)-1-(p-tolyl)-1H-pyrazol-5-yl)-2-fluorobenzonitrile]",,,> 6.30,5.00 to 6.00,
"Cc1ccc(-n2nc(C(=O)N3CCC(CN)CC3)cc2-c2ccc(C#N)c(F)c2)cc1 [Example 8, 4-(3-(4-(Aminomethyl)piperidine-1-carbonyl)-1-(p-tolyl)-1H-pyrazol-5-yl)-2-fluorobenzonitrile]",,,> 6.30,< 5.00,
"Cc1ccc(-n2nc(C(=O)N3CCC(N)CC3)cc2-c2ccc(C#N)c(F)c2)cc1 [Example 9, 4-(3-(4-Aminopiperidine-1-carbonyl)-1-(p-tolyl)-1H-pyrazol-5-yl)-2-fluorobenzonitrile]",,,> 6.30,5.00 to 6.00,
"Cc1ccc(-n2nc(C(=O)NC3CCNC3)cc2-c2ccc(C#N)c(F)c2)cc1 (stereo not drawn) [Example 10, 5-(4-Cyano-3-fluorophenyl)-N-(pyrrolidin-3-yl)-1-(p-tolyl)-1H-pyrazole-3-carboxamide]",,,6.00 to 6.30,5.00 to 6.00,
"Cc1ccc(-n2nc(C(=O)N3CCC[C@@H](N)C3)cc2-c2ccc(C#N)c(F)c2)cc1 [Example 11, (R)-4-(3-(3-Aminopiperidine-1-carbonyl)-1-(p-tolyl)-1H-pyrazol-5-yl)-2-fluorobenzonitrile]",,,> 6.30,> 6.30,> 6.30
"Cc1ccc(-n2nc(C(=O)N3CCC[C@H](N)C3)cc2-c2ccc(C#N)c(F)c2)cc1 [Example 12, (S)-4-(3-(3-Aminopiperidine-1-carbonyl)-1-(p-tolyl)-1H-pyrazol-5-yl)-2-fluorobenzonitrile]",,,> 6.30,> 6.30,> 6.30
"Cc1ccc(-n2nc(-c3ccc(C#N)c(F)c3)cc2C(=O)N2CCC(N)CC2)cc1 [Example 13, 4-(5-(4-Aminopiperidine-1-carbonyl)-1-(p-tolyl)-1H-pyrazol-3-yl)-2-fluorobenzonitrile]",,,5.00 to 6.00,5.00 to 6.00,
"Cc1ccc(-n2nc(-c3ccc(C#N)c(F)c3)cc2C(=O)N2CCCC(N)C2)cc1 (stereo not drawn) [Example 14, 4-(5-(3-Aminopiperidine-1-carbonyl)-1-(p-tolyl)-1H-pyrazol-3-yl)-2-fluorobenzonitrile]",,,> 6.30,5.00 to 6.00,
"Cc1ccc(-n2nc(-c3ccc(C#N)c(F)c3)cc2C(=O)NC2CCNC2)cc1 (stereo not drawn) [Example 15, 3-(4-Cyano-3-fluorophenyl)-N-(pyrrolidin-3-yl)-1-(p-tolyl)-1H-pyrazole-5-carboxamide]",,,6.00 to 6.30,5.00 to 6.00,
"COc1ccc(-n2nc(C(=O)N3CCCC(N)C3)cc2-c2ccc(C#N)c(F)c2)cc1 (stereo not drawn) [Example 16, 4-(3-(3-Aminopiperidine-1-carbonyl)-1-(4-methoxyphenyl)-1H-pyrazol-5-yl)-2-fluorobenzonitrile]",,,> 6.30,> 6.30,
"COc1ccc(-n2nc(-c3ccc(C#N)c(F)c3)cc2C(=O)N2CCCC(N)C2)cc1 (stereo not drawn) [Example 17, 4-(5-(3-Aminopiperidine-1-carbonyl)-1-(4-methoxyphenyl)-1H-pyrazol-3-yl)-2-fluorobenzonitrile]",,,> 6.30,5.00 to 6.00,
"COc1ccc(-n2nc(C(=O)N3CCC[C@@H](N)C3)cc2-c2ccc(C#N)c(F)c2)cc1 [Example 18, (R)-4-(3-(3-Aminopiperidine-1-carbonyl)-1-(4-methoxyphenyl)-1H-pyrazol-5-yl)-2-fluorobenzonitrile]",,,> 6.30,> 6.30,> 6.30
"COc1ccc(-n2nc(C(=O)N3CCC[C@H](N)C3)cc2-c2ccc(C#N)c(F)c2)cc1 [Example 19, (S)-4-(3-(3-Aminopiperidine-1-carbonyl)-1-(4-methoxyphenyl)-1H-pyrazol-5-yl)-2-fluorobenzonitrile]",,,> 6.30,> 6.30,> 6.30
"COc1ccc(-n2nc(C(=O)NC3CCCC(N)C3)cc2-c2ccc(C#N)c(F)c2)cc1 (stereo not drawn) [Example 20, N-(3-aminocyclohexyl)-5-(4-cyano-3-fluorophenyl)-1-(4-methoxyphenyl)-1H-pyrazole-3-carboxamide 2,2,2-trifluoroacetate]",,,5.00 to 6.00,5.00 to 6.00,
"COc1ccc(-n2nc(C(=O)NC3CCNC3)cc2-c2ccc(C#N)c(F)c2)cc1 (stereo not drawn) [Example 21, 5-(4-Cyano-3-fluorophenyl)-1-(4-methoxyphenyl)-N-(pyrrolidin-3-yl)-1H-pyrazole-3-carboxamide]",,,6.00 to 6.30,5.00 to 6.00,
"COc1ccc(-n2nc(C(=O)N[C@H]3CCC[C@@H](N)C3)cc2-c2ccc(C#N)c(F)c2)cc1 [Example 22, N-((1S,3R)-3-aminocyclohexyl)-5-(4-cyano-3-fluorophenyl)-1-(4-methoxyphenyl)-1H-pyrazole-3-carboxamide]",,,6.00 to 6.30,5.00 to 6.00,
"COc1ccc(-n2nc(C(=O)N3CCC(NC(=N)N)CC3)cc2-c2ccc(C#N)c(F)c2)cc1 [Example 30, 1-(1-(5-(4-Cyano-3-fluorophenyl)-1-(4-methoxyphenyl)-1H-pyrazole-3-carbonyl)piperidin-4-yl)guanidine 2,2,2-trifluoroacetate]",,,5.00 to 6.00,,
"N#Cc1ccc(-c2cc(C(=O)N3CCC[C@@H](N)C3)nn2-c2ccc(N3CCNC(=O)C3)cc2)cc1F [Example 49, (R)-4-(3-(3-aminopiperidine-1-carbonyl)-1-(4-(3-oxopiperazin-1-yl)phenyl)-1H-pyrazol-5-yl)-2-fluorobenzonitrile]",,,> 6.30,,
"COc1cc(N2CCNC(=O)C2)ccc1-n1nc(C(=O)N2CCC[C@@H](N)C2)cc1-c1ccc(C#N)c(F)c1 [Example 51, (R)-4-(3-(3-aminopiperidine-1-carbonyl)-1-(2-methoxy-4-(3-oxopiperazin-1-yl)phenyl)-1H-pyrazol-5-yl)-2-fluorobenzonitrile]",,,> 6.30,,
"CN1CCN(c2ccc(-n3nc(C(=O)N4CCC[C@@H](N)C4)cc3-c3ccc(C#N)c(F)c3)c(F)c2)CC1 [Example 67, (R)-4-(3-(3-aminopiperidine-1-carbonyl)-1-(2-fluoro-4-(4-methylpiperazin-1-yl)phenyl)-1H-pyrazol-5-yl)-2-fluorobenzonitrile]",,,> 6.30,,
"CN1CCN(c2ccc(-n3nc(-c4ccc(C#N)c(F)c4)cc3C(=O)N3CCC[C@@H](N)C3)cc2F)CC1 [Example 80, (R)-4-(5-(3-aminopiperidine-1-carbonyl)-1-(3-fluoro-4-(4-methylpiperazin-1-yl)phenyl)-1H-pyrazol-3-yl)-2-fluorobenzonitrile 2,2,2-trifluoroacetate]",,,> 6.30,,
